# Laboratory results as given in patent publication US12285459B2, “Saposin-A derived peptides and uses thereof” (CHILDREN'S MEDICAL CENTER CORPORATION, priority 2011, dated 2025).
# Entries after “also recorded” stand apart in the source; their conditions may differ.
# Key:
# [1] = test system: Tsp-1 expression in Gr1+ cells; experiment: Tsp-1 in Gr1+ cells in lungs of mice given PC3M-LN4 CM plus peptide; format: in vivo, C57BL/6J mice
# Method: CM from PC3M-LN4 cells cultured in serum-free medium for 24 hours was harvested, centrifuged and filtered through […] pore-size filters to remove any cells or cell debris. Wild-type C57BL/6J mice were treated with 200 μL serum-free conditioned media from PC3M-LN4 cells daily for 6 days via intraperitoneal (i.p.) injection in combination with DWLPK (SEQ ID NO: 4) peptide or scrambled peptide.
# Animals were euthanized at the end of experiments and lungs were quickly perfused by injecting 5 ml of cold PBS through the right ventricle of the heart. One part of the lung from each animal was fixed in 3.7% formalin and the other part was sorted by flow cytometry for either protein or RNA extraction.
# For microscopy, following formalin fixation, tissues were cryoembedded in Tissue-Tek O.C.T. embedding compound (Electron Microscopy Sciences). Sections (30 μm) were washed 3 times in PBS and incubated in blocking/permeabilization buffer (PBS+2 mM EDTA, 1% BSA, 1% Goat Serum, 0.05% Triton X-100). […]
# Total RNA from flow cytometry sorted cells was extracted using the PicoPure RNA extraction kit (Arcturus) following the manufacturer's protocol. […] The relative abundance of each transcript compared with the control was calculated utilizing the delta-Ct method.
# [2] = test system: MDA-MB-231-LM2 breast cancer cells; experiment: Orthotopic MDA-MB-231-LM2 breast cancer model, lung metastasis after primary tumor resection; format: in vivo, SCID mice
# Method: (§1) For orthotopic breast cancer cell injections, 5×10^6 viable MDA-MB-231 or its metastatic variant MDA-MB-LM2 cells, were injected into CB-17 SCID mice fat pads in a volume of 0.1 ml. Tumor growth and pulmonary metastases (following resection of primary tumor) were monitored by live animal bioluminescence imaging (Xenogen) once per week. For orthotopic prostate cancer cell injections, 2×10^6 viable LN4 or LN4-psap cells were injected into the prostate gland of mice. For in vivo determination of the metastatic burden, mice were anaesthetized and injected intraperitoneally with 75 mg/kg of D-luciferin (100 uL of 30 mg/mL in PBS). Metastatic growth was monitored over time using bioluminescence imaging performed with mice in a supine position 5 min after D-luciferin injection with a Xenogen IVIS system coupled to Living Image acquisition and analysis software (Xenogen). For BLI plots, photon flux was calculated for each mouse by using the same circular region of interest encompassing the thorax of the mouse.
# The ability of the DWLPK (SEQ ID NO: 4) peptide to inhibit metastasis was tested in an orthotopic, clinically relevant, model of breast cancer metastatic to the lung. […] Lung metastases were assessed 3 weeks after the primary tumor removal (week 6 after primary tumor injection).
# [3] = test system: Tsp-1 and p53 expression in prostate fibroblasts; experiment: Tsp-1 and p53 expression in prostate fibroblasts treated with peptides, western blot; format: cell-based; details: FIG. 2; compared with the longer peptide of the 35-40 region
# Method: Methods of assaying the effects of a polypeptide described herein on Tsp-1 and p53 expression are described herein. Briefly, a control Psap alongside a test polypeptide, is applied to a cell culture of prostate fibroblasts. The conditioned media from PC3M-LN4 (LN4) and PC3 cells are used as controls, with PC3 as positive/stimulating control and LN4 as negative/inhibiting controls. After a period of incubation (˜16 h), the cells are harvested, rinsed, and lysed. The lysates are analyzed for the level of Tsp-1 and p53 expression by western blot analyses, with β-actin as the internal lysate protein loading control.
# These peptides were used to treat prostate and lung fibroblasts in vitro at a concentration of 10 ug/mL for 16 hours in ATCC-specified media supplemented with 0.1% FBS. Tsp-1 and p53 expression was analyzed by western blot as described previously (Kang, Y., et al., (2003) Cancer Cell 3:537-549.)
# [4] = test system: Tsp-1 in white blood cells; experiment: Tsp-1 protein in white blood cells of peptide-injected mice, Western blot; format: in vivo; details: 5 day I.P. injections, 30 mg/kg
# Method: Mice were injected with DWLPK (SEQ ID NO: 4) or a scramble peptide using 5 day I.P. injections with 30 mg/kg peptide. White blood cells were isolated, protein was extracted, and a Western blot was performed measuring Tsp-1 protein.
# [5] = test system: primary ovarian cancer cells; experiment: Intraperitoneal metastatic ovarian cancer model, bioluminescence; format: in vivo, CB-17 SCID mice; details: 40 mg/kg QD from day 17; after 30 days
# Method: as §1, with “metastatic ovarian” for “orthotopic breast”, “primary ovarian cancer cells” for “MDA-MB-231 or its metastatic variant MDA-MB-LM2 cells,”, “intraperitoneally” for “fat pads”, “was” for “and pulmonary metastases (following resection of primary tumor) were”, “week.” for “week. For orthotopic prostate cancer cell injections, 2×10^6 viable LN4 or LN4-psap cells were injected into the prostate gland of mice.”, “abdomen” for “thorax”
# To determine whether DWLPK (SEQ ID NO: 4) could inhibit or regress existing ovarian metastases 5×10^6 primary ovarian cancer cells were injected intraperitoneally into SCID mice. After 17 days treatment was initiated with DWLPK (SEQ ID NO: 4) at a dose of 40 mg/kg QD, cisplatin at a dose of 2 mg/kg QOD, a combination of DWLPK (SEQ ID NO: 4) and cisplatin at the same doses, or PBS (control). It was observed that DWLPK (SEQ ID NO: 4) treatment completely regressed the metastases in 11/12 after 30 days and the regressed the metastases in the remaining mice by 99% (FIG. 20).
substance,measurement,setting,value
DWLPK [5-amino acid peptide corresponding to residues 36-40 of saposin A],recruitment of Gr1+ cells in the lungs,[1]; LN4 CM alone or in combination with peptide,identical regardless of the treatment
same,Tsp-1 expression in the Gr1+ cells,[1]; LN4 CM daily for 6 days i.p. in combination with peptide,more than two fold
same,Tsp-1 in the Gr1+ myeloid compartment of lungs,[2]; compared to scrambled peptide,persistent Tsp-1 upregulation
same,reduction of the metastatic burden in the lungs,"[2]; daily treatment after resection, 3 weeks after primary tumor removal, versus scramble peptide",50%
same,ability to stimulate Tsp-1 in prostate fibroblasts after removing a terminal residue,[3],increased the ability of the resulting 5-amino acid peptide to stimulate Tsp-1
same,Tsp-1 protein in white blood cells,[4],upregulated; also recorded: increased Tsp-1 expression
same,mice with completely regressed metastases,[5],11/12
same,regression of the metastases in the remaining mice,[5],99%
